Legend:
lambsquarters = experiment: Test C pre-/postemergence test; format: in vivo, Chenopodium album; conditions: for Plant response rating, Lambsquarters: scale 0 to 100, 0 no effect, 100 complete control
Outline: (§1)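 Compounds in a non-phytotoxic solvent with surfactant applied preemergence to seeded pots and, at the same time, postemergence to plants 2–18 cm tall (1- to 4-leaf stage). Paddy tests: pots flooded to 3 cm, compound applied into the water, depth held throughout.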

crabgrass = experiment: Test A pre-/postemergence greenhouse test; format: in vivo, Digitaria sanguinalis; conditions: for Plant response rating, Crabgrass, Large: 0 to 100 scale where 0 is no effect and 100 is complete control; for Crabgrass, Large plant response rating: 0 to 100 scale
Outline: (§2)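 Untreated controls served as the reference for visual injury ratings taken about ten days after spraying. The non-phytotoxic solvent/surfactant formulation was applied preemergence to seeded loam and sand and postemergence to plants two to ten cm high.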

umbrella sedge = experiment: Test C flooded paddy test; format: in vivo, Cyperus difformis; conditions: Flood
Outline: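 Ratings were visual and made relative to untreated controls after 13 to 15 greenhouse days.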

soybean = experiment: Test C pre-/postemergence test; format: in vivo, Glycine max
Outline: as §1

giant foxtail [1] = experiment: Test C pre-/postemergence test; format: in vivo, Setaria faberii
Outline: as §1

johnsongrass = experiment: Test C pre-/postemergence test; format: in vivo, Sorghum halepense
Outline: as §1

corn = experiment: Test C pre-/postemergence test; format: in vivo, Zea mays
Outline: as §1

wheat = experiment: Test A pre-/postemergence greenhouse test; format: in vivo, Triticum aestivum; conditions: for Plant response rating, Wheat: 0 to 100 scale where 0 is no effect and 100 is complete control; for Wheat plant response rating: 0 to 100 scale
Outline: as §2

yellow nutsedge = experiment: Test C pre-/postemergence test; format: in vivo, Cyperus esculentus
Outline: as §1

downy brome = experiment: Test C pre-/postemergence test; format: in vivo, Bromus tectorum
Outline: as §1

woolly cupgrass = experiment: Test C pre-/postemergence test; format: in vivo, Eriochloa villosa
Outline: as §1

cocklebur = experiment: Test C pre-/postemergence test; format: in vivo, Xanthium strumarium
Outline: as §1

giant foxtail [2] = experiment: Test A pre-/postemergence greenhouse test; format: in vivo, Setaria faberi; conditions: for Plant response rating, Foxtail, Giant: 0 to 100 scale where 0 is no effect and 100 is complete control; for Foxtail, Giant plant response rating: 0 to 100 scale
Outline: as §2

Goosegrass = experiment: Test C pre-/postemergence test; format: in vivo, Eleusin indica
Outline: as §1

morningglory [3] = experiment: Test A pre-/postemergence greenhouse test; format: in vivo, Ipomoea spp.; conditions: for Plant response rating, Morningglory: 0 to 100 scale where 0 is no effect and 100 is complete control; for Morningglory plant response rating: 0 to 100 scale
Outline: as §2

morningglory [4] = experiment: Test C pre-/postemergence test; format: in vivo, Ipomoea coccinea
Outline: as §1

common ragweed = experiment: Test C pre-/postemergence test; format: in vivo, Ambrosia elation
Outline: as §1

[5] = 62 g ai/ha, Preemergence, scale 0 to 100
[6] = 125 g ai/ha, preemergence, scale 0 (no effect) to 100 (complete control)
[7] = preemergence, 250 g ai/ha, scale 0 (no effect) to 100 (complete control)
[8] = Postemergence, 500 g ai/ha, 0 is no effect, 100 is complete control
[9] = Preemergence, 125 g ai/ha, 0 no effect, 100 complete control
[10] = Postemergence, 125 g ai/ha, scale 0 to 100, 0 no effect, 100 complete control
[11] = Preemergence, 31 g ai/ha, scale 0 to 100 (0 no effect, 100 complete control)
[12] = Postemergence, 250 g ai/ha, scale 0 to 100, 0 no effect, 100 complete control

Question: What does the source list for Cn1nc(C(F)(F)C(F)(F)F)c(C[S+]([O-])c2cccc[n+]2[O-])c1OCC(F)(F)F (centres unmarked) [Compound 79]?
Answer: Lambsquarters plant response rating (lambsquarters; [5]): 90; Lambsquarters plant response rating (lambsquarters; [6]): 100; Plant response rating (0 to 100), Lambsquarters (lambsquarters; Postemergence, 62 g ai/ha): 0; Plant response rating, Lambsquarters (lambsquarters; Postemergence, 125 g ai/ha): 0; Plant response rating, Lambsquarters (lambsquarters; Postemergence, 250 g ai/ha): 70; Lambsquarters plant response rating (lambsquarters; [7]): 100; Plant response rating, Crabgrass, Large (crabgrass; Postemergence, 125 g ai/ha): 70; Crabgrass, Large plant response rating (crabgrass; [8]): 90; Crabgrass, Large plant response rating (crabgrass; [9]): 70; Plant response rating, Crabgrass, Large (crabgrass; Preemergence, 500 g ai/ha): 100; Plant response rating, Sedge, Umbrella (umbrella sedge; 62 g ai/ha, scale 0 to 100 (0 no effect, 100 complete control)): 90; Plant response rating, Sedge, Umbrella (umbrella sedge; 250 g ai/ha, scale 0 to 100, 0 no effect, 100 complete control, 13 to 15 days): 100; Soybean plant response rating (soybean; [5]): 60; Plant response rating (0 to 100), Soybean (soybean; Postemergence, 31 g ai/ha): 50; Plant response rating (0 to 100), Soybean (soybean; Postemergence, 62 g ai/ha): 55; Plant response rating, Soybean (soybean; [10]): 60; Plant response rating, Soybean (soybean; [11]): 60; Soybean plant response rating (soybean; [7]): 80; Foxtail, Giant plant response rating (giant foxtail [1]; [5]): 70; Foxtail, Giant plant response rating (giant foxtail [1]; [6]): 80; Plant response rating (0 to 100), Foxtail, Giant (giant foxtail [1]; Postemergence, 31 g ai/ha): 0; Plant response rating (0 to 100), Foxtail, Giant (giant foxtail [1]; Postemergence, 62 g ai/ha): 0; Plant response rating, Foxtail, Giant (giant foxtail [1]; [10]): 50; Plant response rating, Foxtail, Giant (giant foxtail [1]; [12]): 70; Plant response rating, Foxtail, Giant (giant foxtail [1]; [11]): 70; Foxtail, Giant plant response rating (giant foxtail [1]; [7]): 100; Johnsongrass plant response rating (johnsongrass; [5]): 95; Johnsongrass plant response rating (johnsongrass; [6]): 95; Plant response rating (0 to 100), Johnsongrass (johnsongrass; Postemergence, 31 g ai/ha): 0; Plant response rating (0 to 100), Johnsongrass (johnsongrass; Postemergence, 62 g ai/ha): 20; Plant response rating, Johnsongrass (johnsongrass; [10]): 25; Plant response rating, Johnsongrass (johnsongrass; [12]): 50; Plant response rating, Johnsongrass (johnsongrass; [11]): 80; Johnsongrass plant response rating (johnsongrass; [7]): 95; Corn plant response rating (corn; [5]): 100; Corn plant response rating (corn; [6]): 100; Plant response rating (0 to 100), Corn (corn; Postemergence, 31 g ai/ha): 0; Plant response rating (0 to 100), Corn (corn; Postemergence, 62 g ai/ha): 25; Plant response rating, Corn (corn; [10]): 60; Plant response rating, Corn (corn; [12]): 60; Plant response rating, Corn (corn; [11]): 60; Corn plant response rating (corn; [7]): 100; Plant response rating, Wheat (wheat; Postemergence, 125 g ai/ha): 50; Wheat plant response rating (wheat; [8]): 70; Wheat plant response rating (wheat; [9]): 80; Plant response rating, Wheat (wheat; Preemergence, 500 g ai/ha): 100; Nutsedge, Yellow plant response rating (yellow nutsedge; [5]): 75; Nutsedge, Yellow plant response rating (yellow nutsedge; [6]): 90; Plant response rating (0 to 100), Nutsedge, Yellow (yellow nutsedge; Postemergence, 31 g ai/ha): 0; Plant response rating (0 to 100), Nutsedge, Yellow (yellow nutsedge; Postemergence, 62 g ai/ha): 0; Plant response rating, Nutsedge, Yellow (yellow nutsedge; [10]): 0; Plant response rating, Nutsedge, Yellow (yellow nutsedge; [12]): 10; Plant response rating, Nutsedge, Yellow (yellow nutsedge; [11]): 0; Nutsedge, Yellow plant response rating (yellow nutsedge; [7]): 100; Bromegrass, Downy plant response rating (downy brome; [5]): 50; Bromegrass, Downy plant response rating (downy brome; [6]): 100; Plant response rating (0 to 100), Bromegrass, Downy (downy brome; Postemergence, 31 g ai/ha): 0; Plant response rating (0 to 100), Bromegrass, Downy (downy brome; Postemergence, 62 g ai/ha): 0; Plant response rating, Bromegrass, Downy (downy brome; [10]): 20; Plant response rating, Bromegrass, Downy (downy brome; [12]): 60; Plant response rating, Bromegrass, Downy (downy brome; [11]): 50; Bromegrass, Downy plant response rating (downy brome; [7]): 100; Cupgrass, Woolly plant response rating (woolly cupgrass; [5]): 50; Cupgrass, Woolly plant response rating (woolly cupgrass; [6]): 98; Plant response rating (0 to 100), Cupgrass, Woolly (woolly cupgrass; Postemergence, 31 g ai/ha): 0; Plant response rating (0 to 100), Cupgrass, Woolly (woolly cupgrass; Postemergence, 62 g ai/ha): 0; Plant response rating, Cupgrass, Woolly (woolly cupgrass; [10]): 40; Plant response rating, Cupgrass, Woolly (woolly cupgrass; [12]): 50; Plant response rating, Cupgrass, Woolly (woolly cupgrass; [11]): 0; Cupgrass, Woolly plant response rating (woolly cupgrass; [7]): 100; Cocklebur plant response rating (cocklebur; [5]): 0; Cocklebur plant response rating (cocklebur; [6]): 50; Plant response rating (0 to 100), Cocklebur (cocklebur; Postemergence, 31 g ai/ha): 0; Plant response rating (0 to 100), Cocklebur (cocklebur; Postemergence, 62 g ai/ha): 0; Plant response rating, Cocklebur (cocklebur; [10]): 0; Plant response rating, Cocklebur (cocklebur; [12]): 0; Plant response rating, Cocklebur (cocklebur; [11]): 0; Cocklebur plant response rating (cocklebur; [7]): 50; Plant response rating, Foxtail, Giant (giant foxtail [2]; Postemergence, 125 g ai/ha): 80; Foxtail, Giant plant response rating (giant foxtail [2]; [8]): 90; Foxtail, Giant plant response rating (giant foxtail [2]; [9]): 90; Plant response rating, Foxtail, Giant (giant foxtail [2]; Preemergence, 500 g ai/ha): 100; Goosegrass plant response rating (Goosegrass; [5]): 75; Goosegrass plant response rating (Goosegrass; [6]): 100; Plant response rating (0 to 100), Goosegrass (Goosegrass; Postemergence, 31 g ai/ha): 0; Plant response rating (0 to 100), Goosegrass (Goosegrass; Postemergence, 62 g ai/ha): 0; Plant response rating, Goosegrass (Goosegrass; [10]): 40; Plant response rating, Goosegrass (Goosegrass; [12]): 50; Plant response rating, Goosegrass (Goosegrass; [11]): 70; Goosegrass plant response rating (Goosegrass; [7]): 100; Plant response rating, Morningglory (morningglory [3]; Postemergence, 125 g ai/ha): 50; Morningglory plant response rating (morningglory [3]; [8]): 100; Morningglory plant response rating (morningglory [3]; [9]): 60; Plant response rating, Morningglory (morningglory [3]; Preemergence, 500 g ai/ha): 90; Morningglory plant response rating (morningglory [4]; [5]): 100; Morningglory plant response rating (morningglory [4]; [6]): 100; Plant response rating (0 to 100), Morningglory (morningglory [4]; Postemergence, 31 g ai/ha): 0; Plant response rating (0 to 100), Morningglory (morningglory [4]; Postemergence, 62 g ai/ha): 0; Plant response rating, Morningglory (morningglory [4]; [10]): 0; Plant response rating, Morningglory (morningglory [4]; [12]): 0; Plant response rating, Morningglory (morningglory [4]; [11]): 60; Morningglory plant response rating (morningglory [4]; [7]): 100; Ragweed plant response rating (common ragweed; [5]): 50; Ragweed plant response rating (common ragweed; [6]): 100; Plant response rating (0 to 100), Ragweed (common ragweed; Postemergence, 31 g ai/ha): 0; Plant response rating (0 to 100), Ragweed (common ragweed; Postemergence, 62 g ai/ha): 40; Plant response rating, Ragweed (common ragweed; [10]): 45; Plant response rating, Ragweed (common ragweed; [12]): 50; Plant response rating, Ragweed (common ragweed; [11]): 50; Ragweed plant response rating (common ragweed; [7]): 100
